Data published in US7790687B2, “Treatment for neurodegeneration” (Proximagen Ltd., priority 2005, dated 2010).
“Also recorded” adds a separate entry of the source.

Assays:
[1] = test system: TH positive cells in primary ventral mesencephalic cell cultures; experiment: MPP+ dose response on TH positive cell number in primary ventral mesencephalic cell cultures; assay type: cell-based, rat; details: 24 hrs MPP+ exposure, 0.1-10 μM, n=3; read-out: EC50, dopaminergic (TH positive) cell death
Method: (§1) Primary ventral mesencephalic cell cultures: Primary cell cultures were prepared by dissecting out the ventral mesencephalon from E14 rat foetuses. The dissected tissue was pooled and incubated with 0.1% Trypsin solution. This solution was then removed and replaced with Dulbecco's modified Eagles medium (DMEM) containing 10% foetal bovine serum (FBS) and 0.25% penicillin-streptomycin-neomycin (PSN), and the tissue centrifuged for 1 minute at 200 rpm at room temperature. The supernatant was then removed, fresh medium was added and the tissue mechanically dissociated using increasing fine bore fire-polished Pasteur pipettes. Cell density was assessed using a haematocytometer and cells were plated in culture medium containing 10% FBS and 0.25% PSN at a density of 1-1.5×10^5 on sterile coverslips coated with 0.01 % poly-D-lysine. After 4 days the culture medium was removed and replaced with fresh serum free DMEM prior to treatment with MPP+ or OPN. […]
MPP+ dose response: MPP+ was dissolved in sterile PBS and the primary cell cultures were incubated for 24 hrs with one of the following concentrations of MPP+: 0.1, 0.5, 1, 2, 5, 10 μM MPP+ or vehicle (PBS). […] An EC50 was calculated (3.076±0.56) and a high (10 μM) or low (2 μM) MPP+ concentration was used to investigate the role of OPN in dopaminergic cell survival. […]

[2] = test system: TH positive cells in primary ventral mesencephalic cultures; experiment: Survival of TH positive cells in primary ventral mesencephalic cultures, pre-treatment followed by MPP+; assay type: cell-based, rat; details: for effect on survival/death of TH positive cells: 24 hrs pre-treatment, n=3; for concentration of maximal efficacy (TH cell survival): lowest concentration used
Method: Primary ventral mesencephalic cell cultures: Primary cell cultures were prepared by dissecting out the ventral mesencephalon from E14 rat foetuses. The dissected tissue was pooled and incubated with 0.1% Trypsin solution. This solution was then removed and replaced with Dulbecco's modified Eagles medium (DMEM) containing 10% foetal bovine serum (FBS) and 0.25% penicillin-streptomycin-neomycin (PSN), and the tissue centrifuged for 1 minute at 200 rpm at room temperature. The supernatant was then removed, fresh medium was added and the tissue mechanically dissociated using increasing fine bore fire-polished Pasteur pipettes. Cell density was assessed using a haematocytometer and cells were plated in culture medium containing 10% FBS and 0.25% PSN at a density of 1-1.5×10^5 on sterile coverslips coated with 0.01 % poly-D-lysine. After 4 days the culture medium was removed and replaced with fresh serum free DMEM prior to treatment with MPP+ or OPN. Each treatment was done in triplicate per experiment and each series of experiments was repeated a further 2 times to give a final n=3.
Manipulation of the OPN system: Cultures were incubated with one of the following treatments for 24 hrs prior to MPP+ administration (either 10 μM or 2 μM MPP+): OPN protein (1, 5, 10, 25, 50 & 100 ng/ml), anti-OPN antibody (26.5, 53, 265, 530 ng/ml and 1.325, 2.65 μg/ml), anti-αv or anti-β3 integrin receptor subunit antibody (0.02, 0.04, 0.2, 0.4, 1 & 2 μg/ml). Control groups received no MPP+ treatment.
(§2) Tyrosine hydroxylase (TH) immunohistochemistry: The culture medium was removed from the cells and the coverslips were fixed in 4% paraformaldehyde prior to peroxidase detection of TH using the ABC immunohistochemical method. Coverslips were mounted and examined using a Zeiss Axiophot microscope at a 50× magnification and the number of TH positive cells on each coverslip was manually counted in four fields chosen at random.(total area: 8 mm^2).

[3] = test system: TH positive cells in primary ventral mesencephalic cultures; experiment: Survival of TH positive cells in primary ventral mesencephalic cultures without MPP+ treatment; assay type: cell-based, rat; details: 24 hrs incubation, no MPP+ (no toxin), n=3
Method: as §1, §2

[4] = test system: OPN immunoreactivity in the rat SN; experiment: Intranigral LPS injection, OPN immunoreactivity in the SN; assay type: in vivo; details: compared to saline treated animals
Method: (§3) Male Wistar rats (250-280 g) were obtained from Tuck (Essex, UK) and were kept on a 12 hour light/dark cycle at 21-24° C. with 55-65% humidity with unrestricted access to rat chow and water. All experiments were conducted according to the guidelines set out in the UK Animals (Scientific Procedures) Act 1986 and approved by the King's College London Ethics Committee.
(§4) Animals were randomly divided into 4 groups (n=16 in each group) anaesthetised with halothane (4% in 5%O2:95%CO2), placed in a stereotaxic frame (Kopf Instruments) with the incisor bar set at −3.3 mm and anaesthesia maintained using halothane (1.5-2%). The heads were shaved, scalp cut, skull exposed and a burr hole drilled on the left side of the skull. The following co-ordinates for the SN were used: AP: −4.8 mm, L: +2.0 mm, V: +8.0 mm (Paxinos & Watson, 1986). A 10 μl Hamilton syringe was used and 2 μl of LPS (n=8) (5 mg/ml dissolved in 0.9% sterile saline: E. coli 055:B5; Calbiochem, Nottingham, UK) or 2 μl of vehicle (0.9% sterile saline; n=8) was delivered over a period of 2 minutes. The needle was left in situ for a further 2 minutes before being slowly withdrawn. The wound was closed using Ethicon sutures and the animals allowed to recover from anaesthesia until freely moving before being returned to their home cages. […]

[5] = test system: TH positive cells in the rat SN; experiment: Intranigral LPS injection, TH immunoreactive cell number in the SN; assay type: in vivo; details: compared to contralateral intact SN and to saline controls, present at 24, 48, 72 and 120 hrs
Method: as §3, §4

C[n+]1ccc(-c2ccccc2)cc1 [MPP+]
EC50 [1]: 3.08 ± 0.56 µM

OPN protein fragment: 15 amino acid fragment of rat osteopontin containing the RGD αvβ3 integrin binding site and the α4 and α9 integrin subunit binding sites (TVDVPDGRGDSLAYG; listed as Rattus norvegicus)
effect on survival/death of TH positive cells ([2]; then 2 μM MPP+ for 24 hrs): almost completely protected dopaminergic cells; also recorded: increased TH cell survival
effect on survival/death of TH positive cells ([2]; then 10 μM MPP+ for 24 hrs): almost completely protected dopaminergic cells; also recorded: increased survival of TH positive cells
concentration of maximal efficacy (TH cell survival) ([2]; then 2 μM MPP+): 1 ng/mL
concentration of maximal efficacy (TH cell survival) ([2]; then 10 μM MPP+): 1 ng/mL
effect on viability of TH positive cells [3]: not found to affect the viability; also recorded: no effect

lipopolysaccharide [LPS]
increase in OPN immunoreactivity [4]: 14 fold
decrease in TH positive cells in the LPS injected SN [5]: 70%
